Settings: Gas, single sinker densimeter

CCC [propane]
Settings	mass density [kg/m3]
258.14 K, 101.23 kPa	2.1368
258.15 K, 201.63 kPa	4.3743
258.15 K, 276.61 kPa	6.1388
263.16 K, 209.67 kPa	4.4546
263.17 K, 101.09 kPa	2.0885
263.17 K, 314.8 kPa	6.8907
268.14 K, 251.5 kPa	5.2792
268.15 K, 101.59 kPa	2.0567
268.16 K, 297.13 kPa	6.3169
268.16 K, 386.83 kPa	8.4369
273.14 K, 250.22 kPa	5.1361
273.15 K, 101.64 kPa	2.0179
273.15 K, 101.65 kPa	2.0177
273.15 K, 462.55 kPa	10.0438
278.14 K, 283.52 kPa	5.7427
278.14 K, 542.76 kPa	11.76
278.15 K, 105.47 kPa	2.0544
283.13 K, 101.63 kPa	1.942
283.13 K, 284.93 kPa	5.6533
283.13 K, 452.56 kPa	9.3303
283.13 K, 615.83 kPa	13.2515
288.21 K, 421.87 kPa	8.433
288.21 K, 538.6 kPa	11.0628
288.22 K, 101.88 kPa	1.9105
288.22 K, 217.75 kPa	4.1713
288.22 K, 322.62 kPa	6.3129
288.22 K, 653.34 kPa	13.8134
293.1 K, 803.62 kPa	17.2181
293.12 K, 106.57 kPa	1.9628
293.12 K, 340.88 kPa	6.5552

F/C=C/C(F)(F)F [trans-1,3,3,3-tetrafluoropropene]
Settings	mass density [kg/m3]
263.17 K, 142.52 kPa	7.8479
263.18 K, 101.66 kPa	5.5042
263.18 K, 124.43 kPa	6.8014
268.16 K, 105.74 kPa	5.6056
268.16 K, 137.08 kPa	7.3536
268.17 K, 168.48 kPa	9.1497
273.11 K, 102.98 kPa	5.3503
273.12 K, 145.02 kPa	7.6483
273.12 K, 198.33 kPa	10.6692
278.14 K, 103.54 kPa	5.2727
278.14 K, 152.59 kPa	7.8948
278.14 K, 200.35 kPa	10.5385
278.14 K, 249.93 kPa	13.3894
283.14 K, 106.17 kPa	5.3014
283.15 K, 201.69 kPa	10.3769
283.15 K, 290.13 kPa	15.3909
283.15 K, 303.37 kPa	16.1704
288.11 K, 185.99 kPa	9.3221
288.12 K, 261.69 kPa	13.4297
288.12 K, 338.42 kPa	17.8195
288.13 K, 107.78 kPa	5.2812
288.13 K, 356.37 kPa	18.8808
293.16 K, 106.73 kPa	5.1257
293.16 K, 210.6 kPa	10.407
293.16 K, 302.68 kPa	15.3725
293.16 K, 408.92 kPa	21.5052
